From patent US20090062351A1, “Benzoyl amino pyridyl carboxylic acid derivatives useful as glucokinase (glk) activators” (priority 2003, published 2009)

Legend:
[1] = Plasma protein binding by equilibrium dialysis; type: in vitro ADME; conditions: rat, 37° C., pH 7.4, read-out: % free in plasma
Description: The plasma protein binding of compounds was measured using the equilibrium dialysis technique (W. Lindner et al, J. Chromatography, 1996, 677, 1-28). Compound was dialysed at a concentration of 20 μM for 18 hours at 37° C. with plasma and isotonic phosphate buffer pH 7.4 (1 ml of each in the dialysis cell). A Spectrum® 20-cell equilibrium dialyser was used together with Teflon, semi-micro dialysis cells and Spectra/Por®2 membrane discs with a molecular weight cut off 12-14000 Dalton, 47 mm (supplied by PerBio Science UK Ltd, Tattenhall, Cheshire). Plasma and buffer samples are removed following dialysis and analysed using HPLCUV/MS (high performance liquid chromatography with UV and mass spec detection) to give the % free level in plasma.

[2] = Plasma levels following oral administration to rats; type: in vivo; conditions: rat, including both bound and free, normalised dose of 1 mg compound per kilogram body weight
Description: Planetary Milled compounds [15 mins, 500 rpm, 5 Zirconium Balls, in a Puluerisette 7 Mill (Glen Creston Ltd, Stanmore, Middlesex, UK)] were suspended in 0.5% HPMC Tween and dosed to High Fat Fed (Research Diets, D12451, ad lib feeding 14 days) Female Alderley Park Zucker or Alderley Park Wistar rats at rate of 5 mls/kg, at doses between 0.3 and 10 mg/kg by oral gavage.
Samples of plasma were obtained either by conscious blood sampling or terminal blood sampling as follows:
Conscious blood sampling (for compound level or blood chemistry)—Intravenous blood samples were taken from tail vein using 600 μl Starstedt Multivette (EDTA) and 22 G needle at the required time point. […]
The reconstituted samples were then analysed using high performance liquid chromatography with tandem mass spectrometry detection (HPLC-MS-MS)”. […]
The concentration of test samples was determined from the ratio of the peak height of the test sample to the peak height of the internal standard. The concentration of the test sample was calculated with reference to a standard curve relating the ratio to the concentration prepared by using known concentrations of test sample added to samples of rat plasma using (3-isopropoxy-5-benzyoxy-benzoyl)amino pyridine 3-carboxylic acid as an internal standard, treated as described above.

glucokinase (GLK) = molecular target: T1, glucokinase (GLK) (Homo sapiens, UniProt P35557); assay: biochemical
T1 sequence (P35557 1-466 isoform P35557-2): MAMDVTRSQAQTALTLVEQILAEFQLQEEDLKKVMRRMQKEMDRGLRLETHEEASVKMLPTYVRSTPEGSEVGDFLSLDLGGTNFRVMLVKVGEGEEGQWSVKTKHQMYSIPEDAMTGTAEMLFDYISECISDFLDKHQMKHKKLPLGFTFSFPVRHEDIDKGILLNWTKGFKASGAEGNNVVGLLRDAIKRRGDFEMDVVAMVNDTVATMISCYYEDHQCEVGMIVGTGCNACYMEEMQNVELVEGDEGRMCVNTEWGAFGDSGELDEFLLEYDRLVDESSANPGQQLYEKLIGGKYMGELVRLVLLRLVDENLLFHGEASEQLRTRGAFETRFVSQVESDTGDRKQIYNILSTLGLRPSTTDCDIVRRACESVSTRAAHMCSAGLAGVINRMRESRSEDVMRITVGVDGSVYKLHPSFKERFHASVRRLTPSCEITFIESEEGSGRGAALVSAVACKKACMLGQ

COC[C@H](C)Oc1cc(OCC=C2CCCC2)cc(C(=O)Nc2ccc(C(=O)O)cn2)c1 [Example 2, 6-{[(3-[(2-cyclopentylideneethyl)oxy]-5-{[(1S)-1-methyl-2-(methyloxy)ethyl]oxy}phenyl)carbonyl]amino}pyridine-3-carboxylic acid]
fraction unbound at 18 h, 20 μM [1]: 0.0042
Peak Blood levels [2]: 2.2 µM
EC50 (glucokinase (GLK)): 78 nM
